In patent US9844563B2, “Compositions, kits, and methods to induce acquired cytoresistance using stress protein inducers” (FRED HUTCHINSON CANCER RESEARCH CENTER, priority 2014, dated 2017):

Columns and labels:
[1] = parameters: species or system mice; settings: mouse, in vivo, iv
[2] = test system: HO-1; test: Renal cortical HO-1 mRNA (RT-PCR) and protein (ELISA) after N-Mgb, SnPP or both; format: in vivo, mice
Procedure: (§1) Thirty-two mice were divided into 4 equal groups: (1) control mice; (2) mice treated with 1 mg of N-Mgb injection (as a bolus through the tail vein); (3) mice treated with […] of SnPP (via tail vein); and (4) mice treated with combined N-Mgb 1 SnPP. After either 4 hours (n=16) or 18 hours (n=16), the mice were deeply anesthetized with pentobarbital (50 mg/kg), the abdomen was opened through a midline abdominal incision, and the kidneys were removed. To determine potential effects on extrarenal organs, a liver lobe and the heart were also removed. The tissues were iced and then extracted for protein and RNA (RNeasy Plus Mini; Qiagen, Valencia, Calif.) and subjected to enzyme linked immunosorbent assay (ELISA) and reverse transcriptase polymerase chain reaction (RT-PCR) for HO-1, haptoglobin, and IL-10 protein and messenger RNAs (mRNAs). Zager et al. J Am Soc Nephrol 2014;25:998-1012; Zager et al. Am J Physiol 2012;303:F139-48. As an assessment of renal function, control mice and the 18 hour after N-Mgb+SnPP—treated mice had blood urea nitrogen (BUN) and plasma creatinine levels measured. Additionally, transverse 10% formalin fixed kidney sections ([…]) were cut and stained with hematoxylin and eosin (H&E) and periodic acid Schiff (PAS) to further assess potential injury.

[3] = test system: HO-1; test: Cardiac HO-1 mRNA and protein after N-Mgb, SnPP or both; format: in vivo, mice; settings: 18 h after Rx treatment
Procedure: as §1

[4] = Maleate model of AKI (FeS, SnPP, FeS+SnPP); format: in vivo, mice; settings: IV 1 mg FeS and/or 1 μmole SnPP 18 hrs before IP Na maleate 800 mg/Kg; 18 hrs later
Source text: Effects of Fe sucrose (FeS)/tin protoporphyrin (SnPP) on AKI severity. Maleate model of AKI. When injected into rodents, maleate undergoes relatively selective proximal tubule cell uptake via organic anion transporters. Once intracellular accumulation occurs, maleate is a preferred substrate for succinyl-CoA:3-oxoacid CoA transferase. […] Ample levels of CoA are essential for fatty acid “activation”, allowing for their subsequent metabolism through the Krebs cycle, yielding ATP. In the absence of this process, proximal tubule ATP depletion and cell injury result. Additionally, maleate conjugates the sulfhydryl group of glutathione (GSH), culminating in GSH depletion and potential oxidant tubular stress.
The following experiment tested whether FeS, SnPP or combined FeS+SnPP can mitigate this form of acute kidney injury (AKI). Twenty seven mice were subjected to 200 μL IV tail injections of one of the following: 1) vehicle (phosphate buffered saline, PBS; n, 10); 2) 1 mg FeS (American Regent (Shirley, N.Y.; n, 3); 3) 1 μmole SnPP (Frontier Scientific, Logan, Utah; n 7), or FeS+SnPP, n, 7). Eighteen hrs later, all mice received an IP injection of Na maleate (800 mg/Kg; in 500 ul of PBS). […] The severity of kidney injury was assessed by determining plasma blood urea nitrogen (BUN) and plasma creatinine (PCr) concentrations.

[5] = Agarwal et al., Kidney Int. 1995; cited from earlier work
[6] = Nath et al., J. Clin. Invest. 1992; cited from earlier work

C=Cc1c2[n-]c(c1C)/C=c1\[n-]/c(c(C)c1C=C)=C\c1[n-]c(c(CCC(=O)O)c1C)C=c1[n-]/c(c(C)c1CCC(=O)O)=C\2.[Sn+4] [SnPP, Sn-protoporphyrin, reference compound]
Plasma LDH, Average [1]: 4.51 Absorbance U LDH/ml | increase in renal HO-1 mRNA ([2]; 4 hours after IV injection, vs controls): only modest increases | increase in renal HO-1 protein ([2]; 18 hours post-treatment, vs control values): only relatively small HO-1 protein increases | Cardiac mRNA HO-1 [3]: 0.09 ± 0.03 | reductions in BUN/PCr concentrations, maleate-induced AKI [4]: Neither SnPP alone nor FeS alone significantly altered the severity of renal injury | effect of pretreatment on renal injury [5]: exacerbated renal injury | effect on kidney dysfunction [6]: exacerbated kidney dysfunction
